Data taken from US20240092800A1, “USP13 INHIBITORS AND METHODS OF USE THEREOF” (GEORGETOWN UNIVERSITY, priority 2021, published 2024).

Tested on: Nissl+ cells
Assay: Nissl staining neuron counts in TgA53T mice
Assay type: in vivo, mouse
Conditions: 40 mg/Kg I.P. daily for 7 days, vs DMSO
Description: Immunohistology. Animals were deeply anesthetized with a mixture of xylazine and ketamine (1:8), washed with normal saline for 1 min and then perfused with 4% paraformaldehyde (PFA) for 15-20 min. Brains were quickly dissected out and immediately stored in 4% PFA for 24 h at 4° C. and then transferred to 30% sucrose at 4° C. for 48 h. Brains were cut using a cryostat microtome into 20 μm thick coronal sections and stored at −20° C.
Nissl and Silver Staining. Nissl staining was performed using FD Cresyl Violet Solution™ Regular Strength (FD NeuroTechnologies, Cat PS102-01) as per manufacturer's instructions. Silver staining was performed using FD NeuroSilver™ (FD NeuroTechnologies, Cat PK301,) as per manufacturer's instructions.

Measured: neuron counts (Nissl+ cells)

Fc1ccc2nccc(OCc3ccccc3)c2c1 [4-(Benzyloxy)-6-fluoroquinoline]
significantly increased neuron counts: cortex | striatum | substantia nigra (SN)
